Results: PubChem BioAssay (NCI)
Where “and” joins values, the source holds several entries; their conditions need not be identical. Identical values can stand only once.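 The compound was tested at five concentrations on cells cultured in 96-well plates, with a 48-hour exposure period. GI50 marks 50% less growth. TGI marks complete inhibition of growth.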

Columns and labels:
Assay in all cases: NCI anticancer screen, dose series, 48 h
[1] = system: BT-549 breast
[2] = system: HCT-15 colon
[3] = system: HT29 colon
[4] = system: LOX IMVI melanoma
[5] = system: MDA-MB-435
[6] = system: MOLT-4 leukemia
[7] = system: NCI/ADR-RES ovarian
[8] = system: OVCAR-3 ovarian
[9] = system: OVCAR-4 ovarian
[10] = system: RXF 393 renal

| Compound | GI50 [1] | TGI [1] | GI50 [2] | TGI [2] | GI50 [3] | TGI [3] | GI50 [4] | TGI [4] | GI50 [5] | TGI [5] | GI50 [6] | TGI [6] | GI50 [7] | TGI [7] | GI50 [8] | TGI [8] | GI50 [9] | TGI [9] | GI50 [10] | TGI [10] |
| --- | --- | --- | --- | --- | --- | --- | --- | --- | --- | --- | --- | --- | --- | --- | --- | --- | --- | --- | --- | --- |
| Nc1nc(Nc2cccnc2)sc1C(=O)c1ccccc1F | 1.64 µM | 6.54 µM | 2.82 µM | > 87.8 µM | 2.96 µM | 31.2 µM | 2.26 µM | > 100 µM | 3.74 µM | 24.3 µM | 2.52 µM | > 26.6 µM | 0.844 µM | 12.2 µM | 2.82 µM | > 28.1 µM | 8.74 µM | 76.6 µM | 1.9 µM | 4.39 µM |
| C/C(=N\Nc1ccc(Cl)cn1)c1ccc2ccccc2n1 | 2.62 µM | > 100 µM | 0.64 µM | > 100 µM | 5.05 µM | > 100 µM | 2.02 µM | > 100 µM | 4.45 µM | > 100 µM | 1.26 µM | > 100 µM | 2.16 µM | > 100 µM | 0.545 µM | > 100 µM | 1.52 µM | > 100 µM | 2.95 µM | > 100 µM |
| Cc1cc2ncnn2cc1Nc1ncc2c(n1)n(C1CCOCC1)c(=O)n2C | 2.83 µM | 32.2 µM | 8.23 µM | > 100 µM | 6.64 µM | > 100 µM | 5.92 µM | > 100 µM | 8.01 µM | > 100 µM | 6.09 µM | 52 µM | 19.9 µM | > 100 µM | 6.22 µM | 72 µM | 3.94 µM | 42.9 µM | 3.73 µM | 29.9 µM |
| CCNCCNc1cc(-c2ccc(C(F)(F)F)cc2)c(C#N)c2nc3ccccc3n12 | 1.59 µM | 3.16 µM | 0.612 µM | 1.9 µM | 0.365 µM | 1.29 µM | 0.185 µM | 0.382 µM | 1.28 µM | 2.56 µM | 1.31 µM | 3.29 µM | 1.52 µM | 2.98 µM | 0.306 µM | 1 µM | 0.469 µM | 1.78 µM | 1.69 µM | 3.16 µM |
| CC1=CC(=O)C=CC1=O | 16.2 µM and 14.9 µM | 40 µM and 28.3 µM | 19.1 µM and 13.2 µM | 38 µM and 29 µM | 16.4 µM and 26.9 µM | 40.9 µM and 69.6 µM | 17.9 µM and 14.4 µM | 42.6 µM and 28 µM | 12.3 µM | 25.4 µM | 3.29 µM and 3.22 µM | – | 20.6 µM and 24 µM | 43 µM and 64.4 µM | 3.96 µM | 13.3 µM | 15.1 µM | 30.4 µM | 16.8 µM and 12.1 µM | 31.5 µM and 27.4 µM |
| CC(C)c1ccc(-c2cc(-c3cn[nH]c3-c3ccccn3)ccn2)cc1 | 10.6 µM | > 25 µM | 8.65 µM | > 25 µM | 6.92 µM | > 19.6 µM | 14.6 µM | > 25 µM | 9.42 µM | > 25 µM | 8.06 µM | > 24.1 µM | 7.98 µM | > 25 µM | 8.4 µM | > 25 µM | 10.4 µM | > 25 µM | > 18.5 µM | > 25 µM |
| CCc1nc(N)nc(N)c1-c1ccc(NC)c([N+](=O)[O-])c1 | – | > 100 µM | – | > 100 µM | – | 33.7 µM | – | > 100 µM | – | > 100 µM | – | > 68.2 µM | – | > 100 µM | – | > 100 µM | – | > 100 µM | – | > 93.3 µM |
| O=c1cc(NCC(O)CN2CCCC2)n(Cc2ccccc2)c(=O)n1Cc1ccccc1 (configuration not stated) | 61.6 µM | > 100 µM | 50.9 µM | > 100 µM | 20 µM | 49 µM | 18.5 µM | 38.7 µM | 26.7 µM | 65.8 µM | 24.3 µM | 72.8 µM | > 100 µM | > 100 µM | > 100 µM | > 100 µM | 58.3 µM | > 100 µM | 46 µM | > 100 µM |
| C=CCCCCC/C=C\[C@@H](O)C#CC#C/C=C/CO | 49.9 µM | > 100 µM | > 100 µM | > 100 µM | > 100 µM | > 100 µM | 17.2 µM | 32.1 µM | 68.8 µM | > 100 µM | 18.3 µM | 43.8 µM | > 100 µM | > 100 µM | 41.7 µM | > 100 µM | > 100 µM | > 100 µM | > 100 µM | > 100 µM |
| NC(=O)c1cc(Cl)ccc1NC(=O)/C=C/c1ccccc1 | 4.66 µM | > 100 µM | 2.38 µM | > 100 µM | 2.22 µM | > 100 µM | 4.33 µM | > 100 µM | 0.618 µM | 3.53 µM | 3.44 µM | > 100 µM | 2.63 µM | > 26.9 µM | 1.3 µM | 2.89 µM | 2.77 µM | > 100 µM | 2.19 µM | 6.53 µM |
| O=C1c2cccnc2-c2nc(-c3ccc(Cl)cc3)cc3c2c1nc1ccccc13 | 18 µM | 51.1 µM | 23.9 µM | > 100 µM | – | – | 35.7 µM | > 100 µM | 22.5 µM | 86.4 µM | 51.7 µM | > 100 µM | 55.2 µM | > 100 µM | 24 µM | 75 µM | 43.6 µM | > 100 µM | 30.8 µM | > 100 µM |
